{
  "source": "patent US9511061B2",
  "about": "“Incontinence treatment methods” (IXALTIS, priority 2005, dated 2016)",
  "key": {"[1]": {"system": "5-HT7 receptor in isolated rat bladder", "assay": "Potentialization by serotonin of the neurogenic response of isolated rat bladder (5-HT7 antagonistic functional test)", "conditions": "after incubation with 10 μM of compound A; n=6; solvent 52.7±7.3%", "protocol": "The effect of the compound A and of its solvent (Krebs solution) on the potentialization by serotonin of the neurogenic response of isolated rat bladder was studied in vitro. Strips of detrusor muscle taken from Wistar female rats (250-300 grams) were mounted in baths with isolated organs, containing a Krebs solution, heated to 37° C. and oxygenated with carbogen (95% O2 and 5% CO2). After a 60 minute stabilization period, contraction with 80 mM KCl was achieved. After 30 minutes of wash-out and stabilization, the strips were submitted to electric field stimulation, in order to cause neurogenic contractions. The electric stimulation parameters used were the following: frequency: 5 Hz, maximal voltage, pulse duration 0.3 ms, 10 second pulse trains every 60 s. The compound A and its solvent are incubated for 60 minutes, 30 minutes without electric stimulation and 30 minutes during the phase for stabilizing the neurogenic response. After stabilization, a 5-HT cumulative concentration-response curve range was achieved between 0.01-100 μM."}, "human 5-HT2C receptor": {"target": "human 5-HT2C receptor (Homo sapiens (Human), UniProt P28335)", "sequence (P28335 33-458)": "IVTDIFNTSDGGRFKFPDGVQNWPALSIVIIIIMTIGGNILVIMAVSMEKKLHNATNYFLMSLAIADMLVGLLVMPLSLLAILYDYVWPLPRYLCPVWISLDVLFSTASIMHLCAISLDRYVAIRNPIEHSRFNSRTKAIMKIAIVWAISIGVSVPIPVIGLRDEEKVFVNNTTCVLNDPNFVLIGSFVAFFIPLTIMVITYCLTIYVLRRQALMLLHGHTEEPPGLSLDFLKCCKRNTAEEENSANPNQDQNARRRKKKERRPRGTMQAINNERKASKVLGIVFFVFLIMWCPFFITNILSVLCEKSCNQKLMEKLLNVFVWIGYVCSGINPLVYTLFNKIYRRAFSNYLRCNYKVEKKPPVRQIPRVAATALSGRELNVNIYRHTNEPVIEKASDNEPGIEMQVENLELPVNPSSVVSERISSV", "assay": "Cellular functional test ([35S]GTPγS binding) on cloned human 5-HT2C receptor in CHO cells", "type": "cell-based", "method": "The agonistic and antagonistic activities of the compound A were evaluated in vitro on the human 5-HT2C receptor expressed in Chinese hamster ovarian cells (CHO cells) in a range of concentrations comprised between 1 nM and 100 μM by quantitation of the binding of the specific ligand of the receptor, [^35S]GTPγS, according to a method adapted from Adlersberg (2000) and from Cussac (2002)."}, "adrenergic receptors β": {"target": "adrenergic receptors β", "assay": "Affinity for adrenergic receptors", "type": "binding"}, "[2]": {"system": "anaesthetized female rats under vesical irritation conditions", "assay": "Vesical capacity in anaesthetized female rats under vesical irritation by diluted acetic acid", "type": "in vivo, rat", "conditions": "2 mg/kg i.v., mean±SEM, n=8", "method": "After laparotomy, a bursa was formed at the dome of the bladder, and then a catheter was introduced and ligatured at this bursa. A catheter was implanted at the jugular vein in order to allow administration of the compound A or its solvent. Cystomanometry was performed on the animals placed beforehand on a heating plate, in order to maintain their body temperature around 37° C. A 3-way valve was positioned at the end of the vesical catheter and then connected to a pump allowing perfusion of the bladder (Model “11” plus, Harvard Apparatus) and to a pressure sensor (MX 860/866 Novatrans, Medex Medical). Diluted acetic acid (0.3%) held at room temperature was perfused into the bladder (3 mL/h) in order to induce successive micturitions under vesical irritation conditions. The micturitional profile was continuously recorded by means of a data acquisition system (MacLab/8^e, AD Instruments) and the different urodynamic parameters, including vesical capacity (VC) were determined. […] The compound A (2 mg/kg) or its solvent were then injected intravenously in a volume of 1 mL administered within 5 minutes by means of a syringe pump (Model A-99, Fisher Bioblock Scientific). The effects of the compound A and of its solvent on VC were evaluated at times, 20, 40 and 60 minutes after administration and expressed as a percentage of variation of the basal value (mean±standard error of mean). In both experimental groups (compound A and solvent), the basal values of VC were the same (p>0.05; analysis of variance): 0.045±0.005 mL and 0.042±0.006 mL for the solvent (n=11) and the compound A (n=8), respectively. […] (see compound A group (n=8) in FIG. 2)."}, "[3]": {"system": "recapture of serotonin as compared with that for dopamine (DA)", "conditions": "selectivity, Scatton 1988; cited from earlier work"}, "adrenergic receptors α1": {"target": "adrenergic receptors α1", "assay": "Affinity for adrenergic receptors", "type": "binding"}, "5-HT2C (agonist)": {"target": "5-HT2C (agonist) (Homo sapiens (Human), UniProt P28335)", "sequence (P28335 33-458)": "as above", "assay": "Binding test on cloned human serotoninergic receptor", "conditions": "5-HT2C (agonist) site", "method": "(§1) The affinity of the compound A was evaluated in vitro on 8 cloned human serotoninergic receptors by measuring the specific binding of the ligands to the corresponding receptors according to methods adapted from Mulheron (1994), Bryant (1996), Choi (1994), Hope (1996), Mialet (2000), Rees (1994) and Shen (1993)."}, "5-HT2B (agonist)": {"target": "5-HT2B (agonist) (Homo sapiens (Human), UniProt P41595)", "sequence (P41595 whole entry)": "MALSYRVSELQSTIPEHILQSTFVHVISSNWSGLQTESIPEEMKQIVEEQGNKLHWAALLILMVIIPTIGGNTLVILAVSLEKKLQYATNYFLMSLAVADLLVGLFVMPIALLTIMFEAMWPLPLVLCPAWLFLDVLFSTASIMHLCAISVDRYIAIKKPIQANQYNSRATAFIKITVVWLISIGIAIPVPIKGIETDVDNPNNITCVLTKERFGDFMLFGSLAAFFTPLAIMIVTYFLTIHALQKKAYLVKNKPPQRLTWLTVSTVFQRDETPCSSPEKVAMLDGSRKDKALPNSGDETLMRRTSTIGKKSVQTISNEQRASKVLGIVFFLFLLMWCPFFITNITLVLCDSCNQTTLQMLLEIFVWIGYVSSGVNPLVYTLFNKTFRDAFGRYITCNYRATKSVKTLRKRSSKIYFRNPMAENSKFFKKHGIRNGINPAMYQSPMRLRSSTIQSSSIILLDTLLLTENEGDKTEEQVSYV", "assay": "Binding test on cloned human serotoninergic receptor", "conditions": "5-HT2B (agonist) site", "method": "as §1"}, "5-HT3": {"target": "5-HT3 (Homo sapiens (Human), UniProt P46098)", "sequence (P46098 24-478)": "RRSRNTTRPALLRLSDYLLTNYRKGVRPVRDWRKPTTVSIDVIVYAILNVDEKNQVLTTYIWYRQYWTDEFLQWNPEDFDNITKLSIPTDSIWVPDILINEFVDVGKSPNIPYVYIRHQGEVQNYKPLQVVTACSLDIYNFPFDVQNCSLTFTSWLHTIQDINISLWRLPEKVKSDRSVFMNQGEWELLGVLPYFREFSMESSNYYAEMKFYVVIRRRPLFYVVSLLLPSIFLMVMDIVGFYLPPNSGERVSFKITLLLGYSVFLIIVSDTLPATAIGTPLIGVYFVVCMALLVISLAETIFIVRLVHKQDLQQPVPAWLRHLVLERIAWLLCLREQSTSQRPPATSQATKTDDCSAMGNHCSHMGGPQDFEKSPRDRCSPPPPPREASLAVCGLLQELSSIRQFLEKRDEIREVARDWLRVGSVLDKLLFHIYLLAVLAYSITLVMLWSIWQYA", "assay": "Binding test on cloned human serotoninergic receptor", "method": "as §1"}, "5-HT2A (agonist)": {"target": "5-HT2A (agonist) (Homo sapiens (Human), UniProt P28223)", "sequence (P28223 whole entry)": "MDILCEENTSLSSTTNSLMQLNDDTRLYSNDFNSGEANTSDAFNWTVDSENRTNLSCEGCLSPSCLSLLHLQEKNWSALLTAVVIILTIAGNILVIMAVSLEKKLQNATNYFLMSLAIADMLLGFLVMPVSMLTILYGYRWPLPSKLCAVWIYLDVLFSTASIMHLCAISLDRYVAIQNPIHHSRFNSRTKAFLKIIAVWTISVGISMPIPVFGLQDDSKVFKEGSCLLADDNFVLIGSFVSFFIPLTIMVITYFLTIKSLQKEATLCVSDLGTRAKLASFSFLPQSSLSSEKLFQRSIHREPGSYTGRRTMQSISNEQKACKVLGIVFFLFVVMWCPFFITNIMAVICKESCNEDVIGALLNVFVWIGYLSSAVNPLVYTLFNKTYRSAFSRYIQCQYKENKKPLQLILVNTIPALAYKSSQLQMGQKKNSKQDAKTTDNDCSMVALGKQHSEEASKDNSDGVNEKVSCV", "assay": "Binding test on cloned human serotoninergic receptor", "conditions": "5-HT2A (agonist) site", "method": "as §1"}, "5-HT5A": {"target": "5-HT5A (Homo sapiens (Human), UniProt P47898)", "sequence (P47898 whole entry)": "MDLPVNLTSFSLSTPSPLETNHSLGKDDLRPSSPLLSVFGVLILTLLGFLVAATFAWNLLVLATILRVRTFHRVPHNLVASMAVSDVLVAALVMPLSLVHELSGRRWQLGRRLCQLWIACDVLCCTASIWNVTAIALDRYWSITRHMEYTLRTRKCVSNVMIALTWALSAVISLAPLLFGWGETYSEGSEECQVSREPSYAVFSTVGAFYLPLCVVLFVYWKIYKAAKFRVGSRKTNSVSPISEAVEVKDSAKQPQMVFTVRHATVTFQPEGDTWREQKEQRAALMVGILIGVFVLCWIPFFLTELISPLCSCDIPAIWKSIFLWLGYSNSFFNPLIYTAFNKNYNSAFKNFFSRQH", "assay": "Binding test on cloned human serotoninergic receptor", "method": "as §1"}, "5-HT1A": {"target": "5-HT1A (Homo sapiens (Human), UniProt P08908)", "sequence (P08908 whole entry)": "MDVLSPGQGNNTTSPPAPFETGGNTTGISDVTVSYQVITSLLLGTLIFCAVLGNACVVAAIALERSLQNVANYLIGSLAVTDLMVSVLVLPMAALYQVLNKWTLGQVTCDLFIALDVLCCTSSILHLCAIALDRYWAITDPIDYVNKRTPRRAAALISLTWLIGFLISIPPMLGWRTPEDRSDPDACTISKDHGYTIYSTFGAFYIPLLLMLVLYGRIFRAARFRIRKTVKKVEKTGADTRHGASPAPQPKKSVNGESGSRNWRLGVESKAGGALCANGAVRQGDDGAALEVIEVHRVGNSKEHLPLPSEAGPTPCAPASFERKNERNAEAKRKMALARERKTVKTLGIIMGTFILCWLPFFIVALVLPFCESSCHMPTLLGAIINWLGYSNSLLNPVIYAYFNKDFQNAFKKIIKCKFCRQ", "assay": "Binding test on cloned human serotoninergic receptor", "method": "as §1"}, "5-HT4e": {"target": "5-HT4e (Homo sapiens (Human), UniProt Q13639)", "sequence (Q13639 other isoform, or with tags, fused parts or gaps)": "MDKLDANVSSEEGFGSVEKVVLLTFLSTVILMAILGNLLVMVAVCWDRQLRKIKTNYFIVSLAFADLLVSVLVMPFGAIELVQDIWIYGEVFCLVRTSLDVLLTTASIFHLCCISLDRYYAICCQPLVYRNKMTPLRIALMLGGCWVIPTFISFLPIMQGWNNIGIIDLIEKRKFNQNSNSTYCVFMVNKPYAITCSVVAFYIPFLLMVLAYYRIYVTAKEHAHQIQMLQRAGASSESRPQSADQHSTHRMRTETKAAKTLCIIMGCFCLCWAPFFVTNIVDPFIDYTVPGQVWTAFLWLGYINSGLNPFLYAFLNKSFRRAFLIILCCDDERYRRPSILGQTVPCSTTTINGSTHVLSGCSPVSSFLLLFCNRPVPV", "assay": "Binding test on cloned human serotoninergic receptor", "method": "as §1"}, "5-HT7": {"target": "5-HT7 (Homo sapiens (Human), UniProt P34969)", "sequence (P34969 whole entry)": "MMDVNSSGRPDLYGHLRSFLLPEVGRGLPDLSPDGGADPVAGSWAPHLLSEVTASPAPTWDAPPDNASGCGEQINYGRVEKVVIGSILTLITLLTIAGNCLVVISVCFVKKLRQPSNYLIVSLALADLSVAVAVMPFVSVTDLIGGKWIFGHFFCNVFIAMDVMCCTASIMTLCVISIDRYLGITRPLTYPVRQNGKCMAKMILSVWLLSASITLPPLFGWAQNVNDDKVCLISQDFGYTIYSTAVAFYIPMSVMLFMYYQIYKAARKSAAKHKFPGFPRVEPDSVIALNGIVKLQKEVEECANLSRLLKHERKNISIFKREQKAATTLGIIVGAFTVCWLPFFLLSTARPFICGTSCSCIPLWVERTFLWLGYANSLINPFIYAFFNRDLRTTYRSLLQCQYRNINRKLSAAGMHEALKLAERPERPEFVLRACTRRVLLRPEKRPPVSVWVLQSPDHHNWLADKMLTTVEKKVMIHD", "assay": "Binding test on cloned human serotoninergic receptor", "method": "as §1"}, "[4]": {"system": "recapture of serotonine (5-HT) as compared with that of norepinephrine (NE)", "conditions": "selectivity, Scatton 1988; cited from earlier work"}, "muscarinic receptors": {"target": "muscarinic receptors", "assay": "Affinity for muscarinic receptors", "type": "binding"}, "human detrusor muscle": {"system": "human detrusor muscle", "assay": "Electrically stimulated human detrusor muscle strips in vitro", "method": "The effect of the compound A and of its solvent (Krebs solution) was tested in vitro on bladder strips taken on two male patients within the scope of a radical cystectomy because of an urothelial carcinoma. The strips were mounted in baths with isolated organs, containing a Krebs solution, heated to 37° C. and oxygenated with carbogen (95% O2 and 5% CO2). After a 60 minute stabilization period, the viability of the strips was tested by performing a contraction with 80 mM KCl. After 30 minutes of wash-out and stabilization, the strips were submitted to electric field stimulation, in order to cause neurogenic contractions. The electric stimulation parameters used were the following: frequency: 30 Hz, maximum voltage, pulse duration 0.1 ms, 5 second pulse trains every 100 s. After stabilization of the neurogenic response (about 30 minutes after beginning of the electric stimulation), a range of cumulative concentration-response curves for the compound A was obtained between 0.01-100 μM. It was shown that from 10 μM, the compound A inhibits in a concentration-dependent way, the contractile response of the detrusor muscle strips to electric stimulation with inhibition percentages of 20.1±4.7% at 10 μM, 41.7±5.2% at 30 μM and 80.8±6.8% at 100 μM. Tested under the same conditions, the solvent of the compound A has an inhibiting effect of the order of 10% on the contractions of the detrusor muscle."}, "[5]": {"system": "anaesthetized female rabbits under conditions of vesical irritation", "assay": "Activity of the striated anal sphincter (EMG-SAS) and vesical capacity in anaesthetized female rabbits under vesical irritation by diluted acetic acid", "type": "in vivo, rabbit", "from_the_text": "The effect of 4-[(2-naphthalenyl)-methoxy]-piperidine (compound A) and of its solvent (NaCl 0.9%) on the electromyographic activity of the striated anal sphincter (EMG-SAS), used as a marker of the activity of the urethral sphincter, and on the vesical capacity (VC) was studied in vivo in anaesthetized female rabbits under conditions of vesical irritation induced by intra-vesical perfusion of diluted acetic acid (Perez Martinez et al., 2006 and Haab et al., 2006). […] 16 New Zealander female white rabbits (2.5-3.5 kg) anaesthetized by intramuscular injection of a mixture of ketamin (25 mg/kg) and sylazin (10 mg/kg), were subject to cystostomy. After laparotomy by median incision, a catheter was introduced at the dome of the bladder and held in place by a purse suture. A multiperforable plug was placed at the end of the catheter, and then the catheter was internalized subcutaneously and attached at the abdomen with a silk ligature. 3 days after cystotomy, cystomanometry was performed on animals anaesthetized with halothane (2-3%). A T-tube was connected at the multiperformable plug, and then connected to a pressure sensor (Letica, PanLab) and to a micro-pump allowing perfusion of the bladder (Razel 99, Scientific Instruments). […] The micturitional profile was continuously recorded by means of a data acquisition system (PowerLab 4/25, PanLab) and the different urodynamic parameters, including vesical capacity (VC), were determined. […] The electric signal, amplified and filtered (bandwidth 1 Hz-5 kHz) was continuously recorded by means of the data acquisition system. EMG-SAS was measured during the phase for filling the bladder, in order to get rid of the parasitics related to perineal movements occurring during micturition.\nA catheter was implanted at the vein of the ear in order to allow administration of compound A or of its solvent (NaCl 0.9%) in a volume of 1 mL. […] During a stabilization period (SP) of at least 60 minutes, during which the bladder was perfused, in order to induce regular micturitional cycles, two consecutive doses (1 and 3 mg/kg of compound A or of solvent were administered intravenously, at intervals of 40 minutes. For each of the tested doses, the effects of the compound A and of its solvent on EMG-SAS and on VC were expressed as a percentage of the stabilization period (mean±standard error of mean). During the stabilization period, the parameters obtained in both experimental groups (compound A and solvent) were the same (p>0.05; Kruskal-Wallis test): for EMG-SAS, 1.76±1.04 (n=8) and 1.41±0.59 activity peaks/minute (n=8), for the compound A and its solvent and for VC, respectively, 21.63±4.92 (n=8) and 18.31±2.90 mL (n=8), for the compound A and its solvent respectively. […]"}, "adrenergic receptors α2": {"target": "adrenergic receptors α2", "assay": "Affinity for adrenergic receptors", "type": "binding"}, "[6]": {"conditions": "1 mg/kg intravenously, relative to stabilization period"}},
  "note": "pIC50, pKi: −log10 of the molar value.",
  "data": [
    {"smiles": "c1ccc2cc(COC3CCNCC3)ccc2c1", "note": "[Compound A, 4-[(2-naphthalenyl)-methoxy]-piperidine]", "values": [
      {"measurement": "maximum response of 5-HT, % of the reference contraction induced by 80 mM KCl", "setting": "[1]", "value": "18.7±3.2", "unit": "%"},
      {"measurement": "antagonistic activity", "setting": "human 5-HT2C receptor; 10 μM", "value": 18, "unit": "%"},
      {"measurement": "agonistic activity", "setting": "human 5-HT2C receptor; 3.10^−5 M (plateau)", "value": 44, "unit": "%"},
      {"measurement": "agonistic activity", "setting": "human 5-HT2C receptor; 10^−4 M (plateau)", "value": 42, "unit": "%"},
      {"measurement": "pIC50", "setting": "human 5-HT2C receptor; agonistic activity, [35S]GTPγS, CHO cells, read-out: IC50 (partial agonist for the 5-HT2C receptor)", "value": 5.82},
      {"measurement": "antagonistic activity", "setting": "human 5-HT2C receptor; between 1 nM and 1 μM", "value": "Without any significant antagonistic activity"},
      {"measurement": "pIC50", "setting": "adrenergic receptors β", "value": 4.00},
      {"measurement": "increase in VC, percentage of variation of the basal value", "setting": "[2]; 20 minutes after administration", "value": "46.25±16.40", "unit": "%"},
      {"measurement": "increase in VC, percentage of variation of the basal value", "setting": "[2]; 40 minutes after administration", "value": "44.61±17.51", "unit": "%"},
      {"measurement": "increase in VC, percentage of variation of the basal value", "setting": "[2]; 60 minutes after administration", "value": "60.34±17.8", "unit": "%"},
      {"measurement": "IC50 DA/HT ratio", "setting": "[3]", "value": 188},
      {"measurement": "pIC50", "setting": "adrenergic receptors α1", "value": 4.40},
      {"measurement": "pIC50", "setting": "5-HT2C (agonist)", "value": 6.60},
      {"measurement": "pKi", "setting": "5-HT2C (agonist); Cheng Prusoff", "value": 6.70},
      {"measurement": "pIC50", "setting": "5-HT2B (agonist)", "value": 6.00},
      {"measurement": "pKi", "setting": "5-HT2B (agonist); Cheng Prusoff", "value": 6.01},
      {"measurement": "pIC50", "setting": "5-HT3", "value": 5.85},
      {"measurement": "pKi", "setting": "5-HT3; Cheng Prusoff", "value": 6.14},
      {"measurement": "pIC50", "setting": "5-HT2A (agonist)", "value": 6.00},
      {"measurement": "pKi", "setting": "5-HT2A (agonist); Cheng Prusoff", "value": 6.21},
      {"measurement": "inhibition of the specific binding of the control", "setting": "5-HT5A", "value": 1, "unit": "%"},
      {"measurement": "inhibition of the specific binding of the control", "setting": "5-HT1A", "value": 14, "unit": "%"},
      {"measurement": "pIC50", "setting": "5-HT4e", "value": 5.33},
      {"measurement": "pKi", "setting": "5-HT4e; Cheng Prusoff", "value": 5.80},
      {"measurement": "pIC50", "setting": "5-HT7", "value": 5.14},
      {"measurement": "pKi", "setting": "5-HT7; Cheng Prusoff", "value": 5.59},
      {"measurement": "IC50 NE/HT ratio", "setting": "[4]", "value": 89},
      {"measurement": "pIC50", "setting": "muscarinic receptors", "value": 4.00},
      {"measurement": "inhibition of the contractile response of detrusor muscle strips to electric stimulation", "setting": "human detrusor muscle; 10 μM", "value": "20.1±4.7", "unit": "%"},
      {"measurement": "inhibition of the contractile response of detrusor muscle strips to electric stimulation", "setting": "human detrusor muscle; 30 μM", "value": "41.7±5.2", "unit": "%"},
      {"measurement": "inhibition of the contractile response of detrusor muscle strips to electric stimulation", "setting": "human detrusor muscle; 100 μM", "value": "80.8±6.8", "unit": "%"},
      {"measurement": "effect on EMG-SAS (electromyographic activity of the striated anal sphincter)", "setting": "[5]; [6]", "value": "did not induce any significant effect"},
      {"measurement": "effect on vesical capacity (VC)", "setting": "[5]; [6]", "value": "did not induce any significant effect"},
      {"measurement": "increase in EMG-SAS, percentage of the stabilization period", "setting": "[5]; 3 mg/kg intravenously, mean±SEM, n=7, p=0.018", "value": "1,521.90±966.61%"},
      {"measurement": "increase in VC, percentage of the stabilization period", "setting": "[5]; 3 mg/kg intravenously, mean±SEM, n=8", "value": "123.29±11.62", "unit": "%"},
      {"measurement": "pIC50", "setting": "adrenergic receptors α2", "value": 4.15}
    ]}
  ]
}
